Key:
[1] = tested on: PBMCs from HIV-1-infected HLA-C*14:02+ or HLA-C*14:03+ individuals; experiment: ex vivo IFN-γ ELISPOT assay; type: cell-based, human; settings: for Responder (number), 1402+: 30 HLA-C*14:02+ treatment-naive individuals; for Responder (number), 1402+ / Responder (number), 1403+: positive >100 spots/10^6 PBMCs; for Responder (number), 1403+: 30 HLA-C*14:03+ treatment-naive individuals; for frequency of individuals showing responses of >100 spot-forming cells/10^6 PBMCs: 60 HLA-C*14:02/C*14:03 treatment-naive individuals (30 + 30)
HLA-C*14:03 = HLA-C*14:03 (Homo sapiens, UniProt P10321, A176E/A330V/A35S/A97T/C350S/D114A/D33S/L171W/L180R/L218V/M285V/M309V/M331V/P208H/Q277E/Q291P/R121W/R243W/R45H/S123F/S297R/S48A/T329A/T363A/V319A); experiment: HLA stabilization assay on RMA-S-C1403 cells; type: cell-based; settings: for relative affinity in hierarchy of peptide-HLA-C*14 binding (HLA-C*14:03): peptide concentrations from 0.1 to 100 μM, 6 epitope peptides compared; for binding to HLA-C*14:03 (stabilization of surface HLA expression): 100 μM peptide, 26°C 1 h then 37°C 3 h, MAb DT-9 staining, flow cytometry, triplicate assays
Text: We next sought to confirm the HLA-C*14:02/C*14:03 restriction of the HIV-1 peptides identified by LC-MS/MS. First, we tested their ability to bind to HLA-C*14:02 or HLA-C*14:03 using HLA stabilization assays. Of the 25 HIV-1 peptides, three Env peptides, Env SI8, Env AM11, and Env VM9, are located in variable regions V2 and V3. In addition, Pol AF10, Pol PF8, Pol VWL9, and Env YI9 are located in regions where high sequence variation is reported in the LANL database. Therefore, we excluded these peptides from further analysis. The other 18 peptides were synthesized and tested for binding to HLA-C*14:02/C*14:03 by analyzing their ability to stabilize surface HLA expression on TAP-defective RMA-S cell lines expressing HLA-C*14:02 (RMA-S-C1402) or HLA-C*14:03 (RMA-S-C1403). These RMA-S cell lines express equivalent levels of HLA-C*14:02 and HLA-C*14:03 on the cell surface at 26°C, and surface HLA expression declines to very low levels when the cells are warmed to 37°C in the absence of exogenously added stabilizing peptides (Fig. 2A). Peptide binding was determined by evaluating whether HLA-I expression was stabilized in the presence of 100 μM peptide.
FIG 2 HLA-C*14:02/14:03 binding of HIV-1 peptides eluted from NL4-3-infected .221-C1402 and .221-C1403 cells as assessed by HLA stabilization assay using RMA-S cell lines. (A) Histogram plots showing surface expression of HLA-C*14:02 or HLA-C*14:03 on RMA-S-C1402 or RMA-S-C1403 cells at 26°C and after cells cultured at 26°C had been warmed to 37°C for 3 h. MFI values of cells cultured at 26°C were 27.4 for HLA-C*14:02 and 28.1 for HLA-C*14:03. MFI values of cells cultured at 37°C for 3 h were 5.0 for HLA-C*14:02 and 6.54 for HLA-C*14:03. (B) Analysis of binding of 14 HIV-1 NL4.3 peptides identified by LC-MS/MS to HLA-C*14:02 (blue) or HLA-C*14:03 (red) as measured in HLA class I stabilization assays using RMA-S-C1402 or RMA-S-C1403 cells. (C) Analysis of binding of 9 additional variant peptides to HLA-C*14:02 (blue) or C*14:03 (red). For panels B and C, peptides were tested at a concentration of 100 μM. Results are plotted as percent surface HLA-I expression relative to that at 26°C, calculated as the ratio of the MFI of peptide-pulsed RMA-S-C1402 or RMA-S-C1403 cells to that of control (non-peptide-pulsed) cells kept at 26°C, multiplied by 100. Means and standard deviations (SDs) from triplicate assays are shown. Statistical analyses were performed by unpaired t test. The P values were corrected for multiple testing. *, P < 0.05 and q < 0.05; **, P < 0.01 and q < 0.03; ***, P < 0.001 and q < 0.005.
The relative affinity of peptide binding to HLA-C*14:02 and -C*14:03 was examined using RMA-S-C1402 and RMA-S-C1403 cells as previously described ([15]). Briefly, RMA-S cells were cultured at 26°C for 16 h, pulsed with peptides at 26°C for 1 h, and subsequently incubated at 37°C for 3 h. Staining of cell surface HLA-C molecules was performed with the HLA-C-reactive monoclonal antibody (MAb) DT-9 ([48]), a gift from Mary Carrington, NIH, and fluorescein isothiocyanate (FITC)-conjugated sheep anti-mouse IgG (Jackson ImmunoResearch). Staining data were acquired on a FACSCanto II instrument (BD Biosciences) and analyzed using FlowJo 10.7.1 software. Relative HLA expression was calculated as the ratio of the mean fluorescence intensity (MFI) of peptide-pulsed RMA-S-C1402 cells or RMA-S-C1403 cells to that of control (non-peptide-pulsed) cells kept at 26°C, multiplied by 100 to express the values for peptide-pulsed cells as a percentage of that for the control cells at 26°C.

Sequence	Responder (number), 1402+ ([1]; 1 μM peptide)	Responder (number), 1403+ ([1]; 1 μM peptide)	frequency of individuals showing responses of >100 spot-forming cells/10^6 PBMCs ([1]; 1 μM peptide)	binding to HLA-C*14:03 (stabilization of surface HLA expression) (HLA-C*14:03)	other results
AFHHVAREL [Nef AL9]	2	1	5%		relative affinity in hierarchy of peptide-HLA-C*14 binding (HLA-C*14:03) (HLA-C*14:03): lowest
AFSPEVIPM [Gag AM9]	16	18	56%		relative affinity in hierarchy of peptide-HLA-C*14 binding (HLA-C*14:03) (HLA-C*14:03): highest
ASGYIEAEV [Pol AV9, HIV-1 NL4-3 Pol 795–803 peptide …]				did not exhibit detectable binding	
FFREDLAF [Pol FF8, HIV-1 NL4-3 Pol 1–8 peptide FFREDLAF]				low	
FLGAAGSTM [Env FM9, HIV-1 NL4-3 Env 522–530 peptide …]				did not exhibit detectable binding	
FMTKALGI [Tat FI8, HIV-1 NL4-3 Tat 38–45 peptide FMTKALGI]				did not exhibit detectable binding	
IYHTQGYF [Nef IF8]	6	6	20%		
KYHSNWRAM [Pol KM9]	4	0	6.6%		magnitude of T cell responses, compared between groups ([1]; 60 individuals, HLA-C*14:02+ versus HLA-C*14:03+ (or Gag versus Pol/Nef epitopes), Mann-Whitney test): significantly higher
LYNTIAVLY [Gag LY9]	6	5	18%		number of individuals with response, of 60 HLA-C*14+ Japanese individuals ([1]; 1 μM peptide, relatively strong responses): 11
RFDSRLAF [Nef RF8, HIV-1 NL4-3 Nef 184–191 peptide RFDSRLAF]				did not exhibit detectable binding	
VYYDPSKDL [Pol VYL9, HIV-1 NL4-3 Pol 472–480 peptide …]				low	
YFPDWQNYT [Nef YT9]	12	7	31%		
